# According to patent US12297285B2 (Orna Therapeutics, Inc., priority 2022, dated 2025):
# Tests used:
# Assay in all cases: IRES screening, Gaussia luciferase from LNP-oRNA (Table 27)
# Conditions in all cases: Gaussia luciferase luminescence in supernatant 48 hours after LNP-oRNA transfection, normalized to control (caprine kobuvirus IRES)
# [1] = test system: primary human hepatocytes
# [2] = test system: activated primary human T cells
# [3] = test system: primary human skeletal myotubes
Compound,[Mod] PHH Fold Change [1],[Mod] T Fold Change [2],[Mod] Fold Change Myo [3]
CC(C)CCC(COC(=O)CCCCCCCC(CCCCCCCC(=O)OCC(CCC(C)C)C(C)C)OC(=O)CCCn1ccnc1)C(C)C (stereo not drawn) [Lipid 10a-97],1.163 Fold Change,0.3532 Fold Change,0.2602 Fold Change
Cc1nccn1CCCC(=O)OC(CCCCCCCC(=O)OCC(CCC(C)C)C(C)C)CCCCCCCC(=O)OCC(CCC(C)C)C(C)C (stereo not drawn) [Lipid 10a-98],0.788 Fold Change,0.677 Fold Change,0.2906 Fold Change
Cc1nccn1CCCN(CCCCCCCC(=O)OCC(CCC(C)C)C(C)C)CCCCCCCC(=O)OCC(CCC(C)C)C(C)C (stereo not drawn) [Lipid 10a-99],1.02 Fold Change,0.2767 Fold Change,0.1639 Fold Change
CC(C)CCC(C)CCOC(=O)CCCCCCCN(CCCCCCCC(=O)OCCC(C)CCC(C)C)CCCn1ccnc1 (stereo not drawn) [Lipid 10a-100],1.228 Fold Change,0.4826 Fold Change,0.4952 Fold Change
CC(C)CCC(C)CCOC(=O)CCCCCCCC(CCCCCCCC(=O)OCCC(C)CCC(C)C)OC(=O)CCCn1ccnc1 (stereo not drawn) [Lipid 10a-101],1.37 Fold Change,0.853 Fold Change,0.533 Fold Change
Cc1nccn1CCCN(CCCCCCCC(=O)OCCC(C)CCC(C)C)CCCCCCCC(=O)OCCC(C)CCC(C)C (stereo not drawn) [Lipid 10a-102],0.5141 Fold Change,0.031 Fold Change,0.04469 Fold Change
Cc1nccn1CCCC(=O)OC(CCCCCCCC(=O)OCCC(C)CCC(C)C)CCCCCCCC(=O)OCCC(C)CCC(C)C (stereo not drawn) [Lipid 10a-103],0.6471 Fold Change,0.03951 Fold Change,0.04558 Fold Change
CC(CCOC(=O)CCCCCCCCN(CCCCCCCCC(=O)OCCC(C)CC(C)(C)C)CCCn1ccnc1)CC(C)(C)C (stereo not drawn) [Lipid 10a-104],0.7745 Fold Change,0.1688 Fold Change,0.07607 Fold Change
CC(CCOC(=O)CCCCCCCCC(CCCCCCCCC(=O)OCCC(C)CC(C)(C)C)OC(=O)CCCn1ccnc1)CC(C)(C)C (stereo not drawn) [Lipid 10a-105],0.642 Fold Change,0.329 Fold Change,0.2496 Fold Change
Cc1nccn1CCCN(CCCCCCCCC(=O)OCCC(C)CC(C)(C)C)CCCCCCCCC(=O)OCCC(C)CC(C)(C)C (stereo not drawn) [Lipid 10a-106],1.093 Fold Change,0.648 Fold Change,0.3524 Fold Change
Cc1nccn1CCCC(=O)OC(CCCCCCCCC(=O)OCCC(C)CC(C)(C)C)CCCCCCCCC(=O)OCCC(C)CC(C)(C)C (stereo not drawn) [Lipid 10a-107],1.119 Fold Change,0.9371 Fold Change,0.2879 Fold Change
CCCCC(CC)CCC(=O)OCCCCCCN(CCCCCCOC(=O)CCC(CC)CCCC)CCCn1ccnc1 (stereo not drawn) [Lipid 10a-109],0.8533 Fold Change,0.6261 Fold Change,0.2492 Fold Change
CCCCC(CC)CCC(=O)OCCCCCCN(CCCCCCOC(=O)CCC(CC)CCCC)CCCn1ccnc1C (stereo not drawn) [Lipid 10a-110],0.7175 Fold Change,0.5133 Fold Change,0.2424 Fold Change
CCCCC(CC)CCC(=O)OCCCCCCC(CCCCCCOC(=O)CCC(CC)CCCC)OC(=O)CCCn1ccnc1C (stereo not drawn) [Lipid 10a-111],0.787 Fold Change,0.4651 Fold Change,0.2223 Fold Change
CCCCC(C)CCC(=O)OCCCCCCN(CCCCCCOC(=O)CCC(C)CCCC)CCCn1ccnc1 (stereo not drawn) [Lipid 10a-112],0.8075 Fold Change,0.637 Fold Change,0.3711 Fold Change
CCCCC(C)CCC(=O)OCCCCCCC(CCCCCCOC(=O)CCC(C)CCCC)OC(=O)CCCn1ccnc1 (stereo not drawn) [Lipid 10a-113],0.8279 Fold Change,0.4373 Fold Change,0.3171 Fold Change
CCCCC(C)CCC(=O)OCCCCCCN(CCCCCCOC(=O)CCC(C)CCCC)CCCn1ccnc1C (stereo not drawn) [Lipid 10a-114],0.7898 Fold Change,0.06812 Fold Change,0.05835 Fold Change
CCCCC(C)CCC(=O)OCCCCCCC(CCCCCCOC(=O)CCC(C)CCCC)OC(=O)CCCn1ccnc1C (stereo not drawn) [Lipid 10a-115],0.425 Fold Change,0.04693 Fold Change,0.05074 Fold Change
CC(C)CCCC(C)CC(=O)OCCCCCCC(CCCCCCOC(=O)CC(C)CCCC(C)C)OC(=O)CCCn1ccnc1 (stereo not drawn) [Lipid 10a-116],0.5299 Fold Change,0.03074 Fold Change,0.03921 Fold Change

Compound,[Mod] PHH Fold Change [1],[Mod] T Fold Change [2],[Mod] Fold Change Myo [3]
Cc1nccn1CCCC(=O)OC(CCCCCCOC(=O)CC(C)CCCC(C)C)CCCCCCOC(=O)CC(C)CCCC(C)C (stereo not drawn) [Lipid 10a-117],0.4258 Fold Change,0.04612 Fold Change,0.04273 Fold Change
CC(C)=CCCC(C)CC(=O)OCCCCCCC(CCCCCCOC(=O)CC(C)CCC=C(C)C)OC(=O)CCCn1ccnc1 (stereo not drawn) [Lipid 10a-118],0.6669 Fold Change,0.4562 Fold Change,0.1546 Fold Change
CC(C)=CCCC(C)CC(=O)OCCCCCCC(CCCCCCOC(=O)CC(C)CCC=C(C)C)OC(=O)CCCn1ccnc1C (stereo not drawn) [Lipid 10a-119],0.6212 Fold Change,0.9876 Fold Change,0.198 Fold Change
CC(C)=CCC/C(C)=C/C(=O)OCCCCCCC(CCCCCCOC(=O)/C=C(\C)CCC=C(C)C)OC(=O)CCCn1ccnc1 (stereo not drawn) [Lipid 10a-120],0.4893 Fold Change,0.7019 Fold Change,0.2755 Fold Change
CC(C)=CCC/C(C)=C/C(=O)OCCCCCCC(CCCCCCOC(=O)/C=C(\C)CCC=C(C)C)OC(=O)CCCn1ccnc1C (stereo not drawn) [Lipid 10a-121],0.9977 Fold Change,1.029 Fold Change,0.6276 Fold Change
CC(C)CCCC(C)CC(=O)OCCCCCCN(CCCCCCOC(=O)CC(C)CCCC(C)C)CCCn1ccnc1 (stereo not drawn) [Lipid 10a-122],0.8322 Fold Change,0.8876 Fold Change,0.3886 Fold Change
Cc1nccn1CCCN(CCCCCCOC(=O)CC(C)CCCC(C)C)CCCCCCOC(=O)CC(C)CCCC(C)C (stereo not drawn) [Lipid 10a-123],0.638 Fold Change,0.03011 Fold Change,0.03971 Fold Change
CC(C)=CCCC(C)CC(=O)OCCCCCCN(CCCCCCOC(=O)CC(C)CCC=C(C)C)CCCn1ccnc1C (stereo not drawn) [Lipid 10a-125],0.6492 Fold Change,0.6418 Fold Change,0.3827 Fold Change
CC(C)=CCC/C(C)=C/C(=O)OCCCCCCN(CCCCCCOC(=O)/C=C(\C)CCC=C(C)C)CCCn1ccnc1 [Lipid 10a-126],0.6456 Fold Change,0.06647 Fold Change,0.05793 Fold Change
CC(C)=CCC/C(C)=C/C(=O)OCCCCCCN(CCCCCCOC(=O)/C=C(\C)CCC=C(C)C)CCCn1ccnc1C [Lipid 10a-127],0.6745 Fold Change,0.6858 Fold Change,0.2936 Fold Change
CCCCCCCCC(CCCCCC)C(=O)OCCCCCCN(CCCCCCOC(=O)C(CCCCCC)CCCCCCCC)Cc1nccn1C (stereo not drawn) [Lipid 10a-128],1.021 Fold Change,0.5837 Fold Change,0.4893 Fold Change
CCCCCCCCC(CCCCCC)C(=O)OCCCCCCN(CCCCCCOC(=O)C(CCCCCC)CCCCCCCC)CCn1ccnc1 (stereo not drawn) [Lipid 10a-129],0.6689 Fold Change,0.08945 Fold Change,0.05369 Fold Change
CCCCCCCCC(CCCCCC)C(=O)OCCCCCCN(CCCCCCOC(=O)C(CCCCCC)CCCCCCCC)CCC(C)n1ccnc1 (stereo not drawn) [Lipid 10a-130],0.5728 Fold Change,0.06076 Fold Change,0.04058 Fold Change
CCCCCCCCCOC(=O)CCCCCCCN(CCCCCCCC(=O)OC(CCCCCCCC)CCCCCCCC)CCC(C)n1ccnc1 (stereo not drawn) [Lipid 10a-131],0.5348 Fold Change,0.03336 Fold Change,0.03951 Fold Change
CCCCCCCCCOC(=O)CCCCCCCN(CCCCCCCC(=O)OC(CCCCCCCC)CCCCCCCC)CCn1ccnc1 [Lipid 10a-132],0.5643 Fold Change,0.03118 Fold Change,0.03998 Fold Change
CCCCCCCCCOC(=O)CCCCCCCN(CCCCCCCC(=O)OC(CCCCCCCC)CCCCCCCC)Cc1nccn1C [Lipid 10a-133],0.541 Fold Change,0.03004 Fold Change,0.03933 Fold Change
CCCCCCCCCCCCCCN(CCC(C)n1ccnc1)C(CCCCCCCCC(=O)OCC(CCCC)CCCCCC)CCCCCCCCC(=O)OCC(CCCC)CCCCCC (stereo not drawn) [Lipid 10a-134],0.4673 Fold Change,0.05294 Fold Change,0.04662 Fold Change
CCCCCCCCCCCCCCN(Cc1nccn1C)C(CCCCCCCCC(=O)OCC(CCCC)CCCCCC)CCCCCCCCC(=O)OCC(CCCC)CCCCCC (stereo not drawn) [Lipid 10a-136],0.4286 Fold Change,0.04232 Fold Change,0.04786 Fold Change
